The target of the assay is T1, human P2X7 receptor (Homo sapiens, UniProt Q99572).
T1 construct: expressed in transfected cells; host or cells: HEK293
T1 sequence (Q99572 1-595): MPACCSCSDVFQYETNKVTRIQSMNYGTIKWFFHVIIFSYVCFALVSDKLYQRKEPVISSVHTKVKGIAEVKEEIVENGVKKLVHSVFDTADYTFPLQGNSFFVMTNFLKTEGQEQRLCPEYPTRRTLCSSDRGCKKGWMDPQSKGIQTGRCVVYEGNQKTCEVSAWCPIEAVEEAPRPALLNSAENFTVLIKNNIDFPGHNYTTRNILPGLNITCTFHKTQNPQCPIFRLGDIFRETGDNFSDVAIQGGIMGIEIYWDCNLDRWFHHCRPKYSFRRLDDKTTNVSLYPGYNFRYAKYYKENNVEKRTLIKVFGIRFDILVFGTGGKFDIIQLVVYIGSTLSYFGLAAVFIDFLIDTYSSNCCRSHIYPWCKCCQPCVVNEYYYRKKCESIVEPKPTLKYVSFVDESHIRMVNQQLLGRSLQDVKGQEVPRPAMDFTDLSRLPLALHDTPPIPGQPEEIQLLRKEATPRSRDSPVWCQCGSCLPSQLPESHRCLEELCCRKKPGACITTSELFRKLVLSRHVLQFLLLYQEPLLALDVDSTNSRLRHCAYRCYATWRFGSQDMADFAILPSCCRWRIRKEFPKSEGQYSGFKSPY
Briefly: Ethidium Accumulation Assay. The format is cell-based. To be noted: HEK293 cells expressing human recombinant P2X7 receptors; 1 mM ATP; ethidium 100 μM; read-out: pIC50 in the Ethidium Accumulation Assay (antagonist, blocking ATP responses) (converted). On the procedure: Studies were performed using NaCl assay buffer of the following composition (in mM): 140 mM NaCl, HEPES 10, N-methyl-D-glucamine 5, KCl 5.6, D-glucose 10, CaCl2 0.5 (pH 7.4). HEK293 cells, expressing human recombinant P2X7 receptors, were grown in poly-L-lysine pretreated 96 well plates for 18-24 h. […] The cells were washed twice with 350 μl of assay buffer before addition of 50 μl of antagonist. The cells were then incubated at room temperature (19-21° C.) for 30 min before addition of ATP and ethidium (100 μM final assay concentration). The ATP concentration was chosen to be close to the EC80 for the receptor type and was 1 mM for studies on the human P2X7 receptor. Incubations were continued for 8 or 16 min and were terminated by addition of 25 μl of 1.3M sucrose containing 5 mM of the P2X7 receptor antagonist reactive black 5 (Aldrich). Cellular accumulation of ethidium was determined by measuring fluorescence (excitation wavelength of 530 nm and emission wavelength of 620 nm) from below the plate with a Canberra Packard Fluorocount (Pangbourne, UK). Antagonist pIC50 values for blocking ATP responses were determined using iterative curve fitting techniques.

Take `CN1C(=O)OC[C@H]1C(=O)NCc1cccc(C(F)(F)F)c1Cl` [Example E4, N-{[2-chloro-3-(trifluoromethyl)phenyl]methyl}-3-methyl-2-oxo-1,3-oxazolidine-4-carboxamide]: the IC50 was ≤ 100 nM.
With `CCN1C(=O)OC[C@H]1C(=O)NCc1ccc(F)cc1Cl` [Example E1, N-[(2-chloro-4-fluorophenyl)methyl]-3-ethyl-2-oxo-1,3-oxazolidine-4-carboxamide] the figure was ≤ 100 nM.
Take `CN1C(=O)OCC1C(=O)NCc1cccc(C(F)(F)F)c1Cl` (stereo not shown) [Example E3, N-{[2-chloro-3-(trifluoromethyl)phenyl]methyl}-3-methyl-2-oxo-1,3-oxazolidine-4-carboxamide]: the IC50 was ≤ 100 nM.
On to `CN1C(=O)COCC1C(=O)NCc1cccc(C(F)(F)F)c1Cl` (stereo not shown) [Example E10, N-{[2-chloro-3-(trifluoromethyl)phenyl]methyl}-4-methyl-5-oxo-3-morpholinecarboxamide], for which the IC50 was ≤ 100 nM.

The values are drawn from patent US20100144727A1, “Oxazolidine and Morpholine Carboxamide Derivatives as P2X7 Modulators” (priority 2007, published 2010).
